Laboratory results reported in ChEMBL document CHEMBL3044542 (J Agric Food Chem, 2011).

Experiments:
Format in all cases: functional
[1] = tested on: Nephotettix cincticeps; assay: Insecticidal activity against Nephotettix cincticeps (green rice leafhopper) assessed as lethality at >1000 ppm
[2] = tested on: Nephotettix cincticeps; assay: Insecticidal activity against Nephotettix cincticeps (green rice leafhopper) assessed as lethality at 100 to 1000 ppm
[3] = tested on: Laodelphax striatellus; assay: Insecticidal activity against Laodelphax striatella (small brown planthopper) assessed as lethality at 10 to 100 ppm
[4] = tested on: Nephotettix cincticeps; assay: Insecticidal activity against Nephotettix cincticeps (green rice leafhopper) assessed as lethality at 10 to 100 ppm
[5] = tested on: Nephotettix cincticeps; assay: Insecticidal activity against Nephotettix cincticeps (green rice leafhopper) assessed as lethality at 0.1 to 1 ppm
[6] = tested on: Laodelphax striatellus; assay: Insecticidal activity against Laodelphax striatella (small brown planthopper) assessed as lethality at 0.1 to 1 ppm
[7] = tested on: Laodelphax striatellus; assay: Insecticidal activity against Laodelphax striatella (small brown planthopper) assessed as lethality at 100 to 1000 ppm
[8] = tested on: Nephotettix cincticeps; assay: Insecticidal activity against Nephotettix cincticeps (green rice leafhopper) assessed as lethality at 1 to 10 ppm
[9] = tested on: Laodelphax striatellus; assay: Insecticidal activity against Laodelphax striatella (small brown planthopper) assessed as lethality at 1 to 10 ppm
[10] = tested on: Laodelphax striatellus; assay: Insecticidal activity against Laodelphax striatella (small brown planthopper) assessed as lethality at >1000 ppm

In the case of CN/C(=C\[N+](=O)[O-])CCC1CCOC1 (stereo not given), the Activity [1] is reported as 70%.

Work on N/C(=N\[N+](=O)[O-])NCC1CCOC1 (stereo not given) yielded an Activity [2] of 70%.

For CN(C)/C(=N\[N+](=O)[O-])N(C)CC1CCOC1 (stereo not given), the Activity [3] was 70% and the Activity [4] was 70%.

With CN/C(=C\[N+](=O)[O-])NCC1CCOC1 (stereo not given) the Activity [5] was 70% and the Activity [6] was 70%.

For COCCN1CCN/C1=C\[N+](=O)[O-], the Activity [4] was 70% and the Activity [7] was 70%.

For COCCCN1CCN/C1=C\[N+](=O)[O-], the Activity [4] was 70% and the Activity [7] was 70%.

With N#C/N=C1\SCCCN1CC1CCOC1 (stereo not given) the Activity [3] was 70% and the Activity [4] was 70%.

In the case of C/C(=N\C#N)N(C)CC1CCOC1 (stereo not given), the Activity [7] is reported as 70% and the Activity [2] is reported as 70%.

With CC(=O)N(C)/C(=N\[N+](=O)[O-])N(CC1CCOC1)C(C)=O (stereo not given) the Activity [5] was 70% and the Activity [6] was 70%.

CN/C(=N\[N+](=O)[O-])NCC1CCCOC1 (stereo not given) gave an Activity [4] of 70% and an Activity [7] of 70%.

CCN(CC1CCOC1)/C(=C/[N+](=O)[O-])NC (stereo not given) was tested, and the Activity [3] was 70% and the Activity [8] was 70%.

CC(=O)OCCN1CCN/C1=C\[N+](=O)[O-] gave an Activity [1] of 70% and an Activity [7] of 70%.

CN/C(=N\[N+](=O)[O-])N(C)CC1CCOC1 (stereo not given) gave an Activity [8] of 70% and an Activity [9] of 70%.

For O=[N+]([O-])/N=C1\NCCN1Cc1ccoc1, the Activity [3] was 70% and the Activity [4] was 70%.

CN(C(=O)c1ccccc1)/C(=N\[N+](=O)[O-])N(CC1CCOC1)C(=O)c1ccccc1 (stereo not given) was tested, and the Activity [5] was 70% and the Activity [9] was 70%.

For CC/C(=C\[N+](=O)[O-])N(C)CC1CCOC1 (stereo not given), the Activity [1] was 70%.

O=C(OCCCN1CCN/C1=C\[N+](=O)[O-])c1ccccc1 was tested, and the Activity [7] was 70% and the Activity [2] was 70%.

In the case of CCC1COCC1CN/C(=N/[N+](=O)[O-])NC (mixture of isomers), the Activity [10] is reported as 70% and the Activity [1] is reported as 70%.

For CCN/C(=N\[N+](=O)[O-])NCC1CCOC1 (stereo not given), the Activity [4] was 70% and the Activity [7] was 70%.

Work on CN/C(=N\[N+](=O)[O-])NCC1CCOC1C (mixture of isomers) yielded an Activity [10] of 70% and an Activity [1] of 70%.

Molecule CN/C(=N\[N+](=O)[O-])NCC1(C)CCOC1 (stereo not given) has an Activity [10] of 70% and an Activity [1] of 70%.

With CN/C(=N\[N+](=O)[O-])NCC1CC2CCC1O2 (mixture of isomers) the Activity [10] was 70% and the Activity [1] was 70%.

O=[N+]([O-])/N=C1\NCCN1CCC1CCCO1 (stereo not given) gave an Activity [7] of 70% and an Activity [2] of 70%.

For O=[N+]([O-])/N=C1\NCCN1CCC1CCCCO1 (stereo not given), the Activity [7] was 70% and the Activity [2] was 70%.

O=C(OCCN1CCN/C1=C\[N+](=O)[O-])c1ccccc1 was tested, and the Activity [1] was 70% and the Activity [7] was 70%.

O=[N+]([O-])/C=C1\NCCN1CCO gave an Activity [1] of 70% and an Activity [7] of 70%.

Work on CN/C(=N\[N+](=O)[O-])NCC1COCC1C (mixture of isomers) yielded an Activity [3] of 70% and an Activity [8] of 70%.

O=[N+]([O-])/N=C1\NCCN1CC1CCOC1 (stereo not given) gave an Activity [3] of 70% and an Activity [8] of 70%.

O=[N+]([O-])/C=C1\NCCN1CCCO gave an Activity [7] of 70% and an Activity [2] of 70%.

CC(=O)OCCCN1CCN/C1=C\[N+](=O)[O-] showed an Activity [7] of 70% and an Activity [2] of 70%.

In the case of CN/C(=N/CC1CCOC1)N[N+](=O)[O-] (stereo not given) [DINOTEFURAN], the Activity [5] is reported as 70% and the Activity [6] is reported as 70%.

Molecule O=[N+]([O-])/N=C1\NCCN1Cc1ccc(Cl)nc1 [IMIDACLOPRID] has an Activity [5] of 70% and an Activity [6] of 70%.

For CN/C(=N\[N+](=O)[O-])NCC1COC(C)C1 (mixture of isomers), the Activity [3] was 70% and the Activity [8] was 70%.

For CN1COCN(CC2CCOC2)/C1=N/[N+](=O)[O-] (stereo not given), the Activity [7] was 70% and the Activity [2] was 70%.
